What follows are compounds tested against T1, Androgen receptor (Rattus norvegicus, UniProt P15207) (assay: Competitive Radioligand Displacement Assay). Conditions: pH 7.4; 4 °C.
T1 sequence (P15207 whole entry): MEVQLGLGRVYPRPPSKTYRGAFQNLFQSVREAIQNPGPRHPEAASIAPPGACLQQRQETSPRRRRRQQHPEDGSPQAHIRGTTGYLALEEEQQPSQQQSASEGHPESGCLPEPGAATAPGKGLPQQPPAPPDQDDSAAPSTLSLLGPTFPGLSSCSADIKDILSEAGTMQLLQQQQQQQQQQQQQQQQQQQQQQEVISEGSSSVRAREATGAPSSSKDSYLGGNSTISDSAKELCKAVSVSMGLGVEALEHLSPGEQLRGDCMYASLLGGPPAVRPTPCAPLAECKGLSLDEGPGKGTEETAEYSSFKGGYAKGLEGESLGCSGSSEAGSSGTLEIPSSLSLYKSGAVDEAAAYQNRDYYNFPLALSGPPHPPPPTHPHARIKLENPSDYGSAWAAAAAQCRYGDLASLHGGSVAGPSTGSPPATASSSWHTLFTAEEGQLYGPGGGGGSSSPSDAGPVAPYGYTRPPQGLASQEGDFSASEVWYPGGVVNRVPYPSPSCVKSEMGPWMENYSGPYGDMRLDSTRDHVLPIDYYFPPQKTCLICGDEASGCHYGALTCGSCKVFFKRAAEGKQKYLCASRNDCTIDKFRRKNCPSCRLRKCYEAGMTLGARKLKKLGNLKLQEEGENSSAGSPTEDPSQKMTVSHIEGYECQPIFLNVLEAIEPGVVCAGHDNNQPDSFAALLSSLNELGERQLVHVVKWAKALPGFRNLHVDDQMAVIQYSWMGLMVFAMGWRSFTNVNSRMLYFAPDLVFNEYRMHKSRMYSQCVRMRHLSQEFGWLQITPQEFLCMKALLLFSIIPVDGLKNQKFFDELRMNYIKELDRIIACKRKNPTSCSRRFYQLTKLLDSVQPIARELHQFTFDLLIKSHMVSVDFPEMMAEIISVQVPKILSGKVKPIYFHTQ
Description: The Ki values were determined by the application of the Cheng-Prusoff equation: Ki = (IC50 x Kd)/(Kd+[L]) where [L] is the concentration of [3H]MIB (1 nM ) and Kd is the dissociation constant of the [3H]MIB determined in the saturation analysis (Kd=0.19 nM for MIB).

Point of comparison: `C[C@@](O)(COc1ccc(N=C=S)cc1)C(=O)Nc1ccc([N+](=O)[O-])c(C(F)(F)F)c1` [(2R)-2-hydroxy-3-(4-isothiocyanatophenoxy)-2-methyl-N-[4-nitro-3-(trifluoromethyl)phenyl]propanamide], Ki 36.2 nM. Against it:
- C[C@](O)(CSc1ccc(N=C=S)cc1)C(=O)Nc1ccc([N+](=O)[O-])c(C(F)(F)F)c1 [(2R)-2-hydroxy-3-[(4-isothiocyanatophenyl)sulfanyl]-2-methyl-N-[4-nitro-3-(trifluoromethyl)phenyl]propanamide] — 1.5-fold higher, 54.8 nM
- C[C@](O)(COc1ccc(N=C=S)c(F)c1)C(=O)Nc1ccc([N+](=O)[O-])c(C(F)(F)F)c1 [(2S)-3-(3-fluoro-4-isothiocyanatophenoxy)-2-hydroxy-2-methyl-N-[4-nitro-3-(trifluoromethyl)phenyl]propanamide] — 2.9-fold lower, 12.6 nM
